From the CheMixHub ionic liquid set

Test: xn = mol fraction of the nth substance listed
Conditions: for electrical conductivity: 101 kPa; for viscosity: 100 kPa

CCCCCCCCCCCCOS(=O)(=O)[O-].[Na+] + O
Conditions | electrical conductivity [S/m] | viscosity [mPa·s]
283.1 K, x1 = 6.483e-05 | 0.01714 | –
283.1 K, x1 = 6.941e-05 | 0.01821 | –
283.1 K, x1 = 7.476e-05 | 0.01971 | –
283.1 K, x1 = 8.126e-05 | 0.02131 | –
283.1 K, x1 = 8.852e-05 | 0.02313 | –
283.1 K, x1 = 9.769e-05 | 0.02537 | –
283.1 K, x1 = 0.0001027 | 0.02665 | –
283.1 K, x1 = 0.0001088 | 0.02815 | –
283.1 K, x1 = 0.0001153 | 0.02986 | –
283.1 K, x1 = 0.0001225 | 0.03168 | –
283.1 K, x1 = 0.000131 | 0.03381 | –
283.1 K, x1 = 0.0001413 | 0.03617 | –
283.1 K, x1 = 0.0001516 | 0.03884 | –
283.1 K, x1 = 0.0001654 | 0.04066 | –
283.1 K, x1 = 0.0001807 | 0.04228 | –
283.1 K, x1 = 0.0001998 | 0.044 | –
283.1 K, x1 = 0.0002228 | 0.04584 | –
283.1 K, x1 = 0.0002339 | 0.0467 | –
283.1 K, x1 = 0.0002461 | 0.04778 | –
283.1 K, x1 = 0.0002595 | 0.04865 | –
283.1 K, x1 = 0.0002745 | 0.04994 | –
283.1 K, x1 = 0.0002921 | 0.05135 | –
288.15 K, x1 = 6.595e-05 | 0.01969 | –
288.15 K, x1 = 7.09e-05 | 0.02119 | –
288.15 K, x1 = 7.663e-05 | 0.02279 | –
288.15 K, x1 = 8.276e-05 | 0.0245 | –
288.15 K, x1 = 9e-05 | 0.02696 | –
288.15 K, x1 = 9.917e-05 | 0.02952 | –
288.15 K, x1 = 0.0001045 | 0.03102 | –
288.15 K, x1 = 0.0001107 | 0.03273 | –
288.15 K, x1 = 0.0001168 | 0.03465 | –
288.15 K, x1 = 0.0001244 | 0.03679 | –
288.15 K, x1 = 0.0001328 | 0.03924 | –
288.15 K, x1 = 0.0001424 | 0.04191 | –
288.15 K, x1 = 0.0001538 | 0.04459 | –
288.15 K, x1 = 0.0001668 | 0.0463 | –
288.15 K, x1 = 0.0001829 | 0.04792 | –
288.15 K, x1 = 0.0002013 | 0.04975 | –
288.15 K, x1 = 0.0002246 | 0.05212 | –
288.15 K, x1 = 0.0002357 | 0.05319 | –
288.15 K, x1 = 0.0002468 | 0.05427 | –
288.15 K, x1 = 0.0002602 | 0.05567 | –
288.15 K, x1 = 0.0002748 | 0.05707 | –
288.15 K, x1 = 0.0002912 | 0.05868 | –
293.15 K, x1 = 1.802e-05 | – | 0.968
293.15 K, x1 = 3.604e-05 | – | 0.97
293.15 K, x1 = 5.406e-05 | – | 0.971
293.15 K, x1 = 6.553e-05 | 0.02214 | –
293.15 K, x1 = 6.973e-05 | 0.02364 | –
293.15 K, x1 = 7.207e-05 | – | 0.974
293.15 K, x1 = 7.508e-05 | 0.02545 | –
293.15 K, x1 = 8.157e-05 | 0.02759 | –
293.15 K, x1 = 8.883e-05 | 0.03004 | –
293.15 K, x1 = 9.009e-05 | – | 0.978
293.15 K, x1 = 9.76e-05 | 0.03303 | –
293.15 K, x1 = 0.000103 | 0.03463 | –
293.15 K, x1 = 0.0001081 | – | 0.981
293.15 K, x1 = 0.0001091 | 0.03666 | –
293.15 K, x1 = 0.0001152 | 0.03858 | –
293.15 K, x1 = 0.0001228 | 0.04104 | –
293.15 K, x1 = 0.0001261 | – | 0.984
293.15 K, x1 = 0.0001312 | 0.04371 | –
293.15 K, x1 = 0.0001408 | 0.0468 | –
293.15 K, x1 = 0.0001441 | – | 0.986
293.15 K, x1 = 0.0001522 | 0.04969 | –
293.15 K, x1 = 0.0001622 | – | 0.988
293.15 K, x1 = 0.0001649 | 0.05162 | –
293.15 K, x1 = 0.0001802 | – | 0.989
293.15 K, x1 = 0.0001805 | 0.05366 | –
293.15 K, x1 = 0.0001982 | – | 0.992
293.15 K, x1 = 0.0001989 | 0.05581 | –
293.15 K, x1 = 0.0002162 | – | 0.993
293.15 K, x1 = 0.0002219 | 0.0586 | –
293.15 K, x1 = 0.0002326 | 0.05979 | –
293.15 K, x1 = 0.0002342 | – | 0.993
293.15 K, x1 = 0.0002441 | 0.06118 | –
293.15 K, x1 = 0.0002522 | – | 0.995
293.15 K, x1 = 0.0002575 | 0.06269 | –
293.15 K, x1 = 0.0002702 | – | 0.996
293.15 K, x1 = 0.000272 | 0.06419 | –
293.15 K, x1 = 0.0002889 | 0.06613 | –
298.15 K, x1 = 1.802e-05 | – | 0.853
298.15 K, x1 = 3.604e-05 | – | 0.854
298.15 K, x1 = 5.406e-05 | – | 0.855
298.15 K, x1 = 7.207e-05 | – | 0.856
298.15 K, x1 = 9.009e-05 | – | 0.857
298.15 K, x1 = 0.0001081 | – | 0.857
298.15 K, x1 = 0.0001261 | – | 0.858
298.15 K, x1 = 0.0001441 | – | 0.86
298.15 K, x1 = 0.0001622 | – | 0.862
298.15 K, x1 = 0.0001802 | – | 0.863
298.15 K, x1 = 0.0001982 | – | 0.864
298.15 K, x1 = 0.0002162 | – | 0.865
298.15 K, x1 = 0.0002342 | – | 0.866
298.15 K, x1 = 0.0002522 | – | 0.866
